Data: US9018219B2, “Fused aminodihydropyrimidine derivative” (Shionogi & Co., Ltd., priority 2010, dated 2015)

Experiments:
CYP2C19 = target: T1, CYP2C19 (Homo sapiens, UniProt P33261); assay: CYP inhibition test (CYP2C19); assay type: in vitro ADME; details: pooled human hepatic microsome 0.2 mg protein/mL, 15 minutes, 37° C.; read-out: IC50 CYP2C19 (mephenyloin 4′-hydroxylation)
T1 construct: enzyme, pooled human hepatic microsome 0.2 mg protein/mL; from tissue
From the text: (§1) Using commercially available pooled human hepatic microsome, and employing, as markers, 7-ethoxyresorufin O-deethylation (CYP1A2), tolbutamide methyl-hydroxylation (CYP2C9), mephenyloin 4′-hydroxylation (CYP2C19), dextromethorphan O-demethylation (CYP2D6), and terfenedine hydroxylation (CYP3A4) as typical substrate metabolism reactions of human main five CYP enzyme forms (CYP1A2, 2C9, 2C19, 2D6, 3A4), an inhibitory degree of each metabolite production amount by a compound of the present invention was assessed. […] After the centrifugation at 3000 rpm for 15 minutes, resorufin (CYP1A2 metabolite) in the supernatant was quantified by a multi-label counter and hydroxytolbutamide (CYP2C9 metabolite), 4′-hydroxymephenyloin (CYP2C19 metabolite), dextrorphan (CYP2D6 metabolite), and terfenadine alcohol metabolite (CYP3A4 metabolite) were quantified by LC/MS/MS. Addition of only DMSO being a solvent dissolving a compound to a reaction system was adopted as a control (100%), remaining activity (%) was calculated and IC50 was calculated by reverse presumption by a logistic model using a concentration and an inhibition rate.

Recombinant human BACE-1 = target: T2, Recombinant human BACE-1 (Homo sapiens, UniProt P56817); assay: Assay of BACE1 inhibitory activity; assay type: biochemical; details: Recombinant human BACE1 7.4 nmol/L, substrate peptide 18 nmol/L, pH 5.0, 30° C. for 3 hours; read-out: IC50 (50% inhibitory concentration against the enzymatic activity)
T2 construct: purchased R&D Systems
Protocol: 48.5 μL of substrate peptide solution (Biotin-XSEVNLDAEFRHDSGC-Eu: X=ε-amino-n-capronic acid, Eu=Europium cryptate) was added to each well of 96-hole half-area plate (a black plate: Costar), and after addition of 0.5 μl of the compound of the present invention (N,N′-dimethylformamide solution) and 1 μl of Recombinant human BACE-1 (R&D Systems), the reaction mixture was incubated at 30° C. for 3 hours. The substrate peptide was synthesized by reacting Cryptate TBPCOOH mono SMP (CIS bio international) with Biotin-XSEVNLDAEFRHDSGC (Peptide Institute, Inc.). The final concentrations of the substrate peptide and Recombinant human BACE1 were adjusted to 18 nmol/L and 7.4 nmol/L, respectively, and the reaction was performed in sodium acetate buffer (50 mmol/L sodium acetate, pH 5.0, 0.008% Triton X-100). After the incubation for reaction, 50 μl of 8.0 μg/ml Streptavidin-XL665 (CIS bio international) dissolved in phosphate buffer (150 mmol/L K2HPO4—KH2PO4, pH 7.0, 0.008% Triton X-100, 0.8 mol/L KF) was added to each well and left stand at 30° C. for 1 hour. After then, fluorescence intensity was measured (excitation wavelength: 320 nm, measuring wavelength: 620 nm and 665 nm) using Wallac 1420 multilabel counter (Perkin Elmer life sciences). Enzymatic activity was determined from counting ratio of each wavelength (10,000×Count 665/Count 620) and 50% inhibitory concentration against the enzymatic activity (IC50) was calculated.

[1] = test system: Neuroblastoma SH-SY5Y cells (SH/APPwt) with human wild-type β-APP excessively expressed; assay: Measurement of β-amyloid (Aβ) production inhibiting effect in cell; assay type: cell-based; details: 24 hours incubation, Amyloid β 1-40 HTRF in culture supernatant, read-out: IC50 (amount needed to inhibit Aβ production by 50%)
Protocol: Neuroblastoma SH-SY5Y cells (SH/APPwt) with human wild-type β-APP excessively expressed therein were prepared at 8×10^5 cells/mL, and 150 μl portions thereof were inoculated into each well of a 96-well culture plate (Falcon). The cells were cultured for 2 hours at 37° C. in a 5% gaseous carbon dioxide incubator. Then, a solution which have been preliminarily prepared by adding and suspending the compound of the present invention (DMSO (dimethyl sulfoxide) solution) so as to be 2 μl/50 μl medium was added to the cell sap. Namely, the final DMSO concentration was 1%, and the amount of the cell culture was 200 μl. After the incubation was performed for 24 hours from the addition of the test compound, 100 μl of the culture supernatant was collected from each fraction. The amount of the Aβ in each fraction was measured.
The Aβ amount was measured as follows. 10 μl of a homogeneous time resolved fluorescence (HTRF) measurement reagent (Amyloid β 1-40 peptide; IBA Molecular Holding, S.A.) and 10 μl of the culture supernatant were put into a 384-well half area microplate (black microplate, Costar) and mixed with each other, and then left standing overnight at 4° C. while the light was shielded. Then, the fluorescence intensity (excitation wavelength: 337 nm, measurement wavelength: 620 nm and 665 nm) was measured with Wallac 1420 multilabel counter (Perkin Elmer life sciences). The Aβ amount was determined from the count rate at each measurement wavelength (10000×Count 665/Count 620), and the amount needed to inhibit Aβ production by 50% (IC50) was calculated from at least six different dosages.

CYP2C9 = target: T3, CYP2C9 (Homo sapiens, UniProt P11712); assay: CYP inhibition test (CYP2C9); assay type: in vitro ADME; details: pooled human hepatic microsome 0.2 mg protein/mL, 15 minutes, 37° C.; read-out: IC50 CYP2C9 (tolbutamide methyl-hydroxylation)
T3 construct: enzyme, pooled human hepatic microsome 0.2 mg protein/mL; from tissue
From the text: as §1

CYP3A4 = CYP3A4 (Homo sapiens, UniProt P08684); assay: CYP inhibition test (CYP3A4); assay type: in vitro ADME; design: enzyme, pooled human hepatic microsome 0.2 mg protein/mL; from tissue; details: pooled human hepatic microsome 0.2 mg protein/mL, 15 minutes, 37° C.; read-out: IC50 CYP3A4 (terfenedine hydroxylation)
From the text: as §1

CYP2D6 = target: T4, CYP2D6 (Homo sapiens, UniProt P10635); assay: CYP inhibition test (CYP2D6); assay type: in vitro ADME; details: pooled human hepatic microsome 0.2 mg protein/mL, 15 minutes, 37° C.; read-out: IC50 CYP2D6 (dextromethorphan O-demethylation)
T4 construct: enzyme, pooled human hepatic microsome 0.2 mg protein/mL; from tissue
From the text: as §1

T1 sequence (P33261 whole entry): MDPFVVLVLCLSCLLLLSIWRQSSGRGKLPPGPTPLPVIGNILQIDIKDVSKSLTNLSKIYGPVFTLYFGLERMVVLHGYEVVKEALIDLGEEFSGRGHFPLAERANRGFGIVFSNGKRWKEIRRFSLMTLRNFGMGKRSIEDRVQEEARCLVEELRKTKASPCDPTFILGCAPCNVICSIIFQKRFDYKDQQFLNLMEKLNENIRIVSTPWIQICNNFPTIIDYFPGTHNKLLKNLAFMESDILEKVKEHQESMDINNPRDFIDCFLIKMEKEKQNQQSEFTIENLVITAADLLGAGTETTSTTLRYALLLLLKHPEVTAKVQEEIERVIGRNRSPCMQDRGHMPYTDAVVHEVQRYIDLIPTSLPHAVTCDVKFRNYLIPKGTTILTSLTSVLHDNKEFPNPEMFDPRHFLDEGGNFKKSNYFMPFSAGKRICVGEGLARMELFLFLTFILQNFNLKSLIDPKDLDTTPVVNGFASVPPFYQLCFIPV
T2 sequence (P56817 46-501): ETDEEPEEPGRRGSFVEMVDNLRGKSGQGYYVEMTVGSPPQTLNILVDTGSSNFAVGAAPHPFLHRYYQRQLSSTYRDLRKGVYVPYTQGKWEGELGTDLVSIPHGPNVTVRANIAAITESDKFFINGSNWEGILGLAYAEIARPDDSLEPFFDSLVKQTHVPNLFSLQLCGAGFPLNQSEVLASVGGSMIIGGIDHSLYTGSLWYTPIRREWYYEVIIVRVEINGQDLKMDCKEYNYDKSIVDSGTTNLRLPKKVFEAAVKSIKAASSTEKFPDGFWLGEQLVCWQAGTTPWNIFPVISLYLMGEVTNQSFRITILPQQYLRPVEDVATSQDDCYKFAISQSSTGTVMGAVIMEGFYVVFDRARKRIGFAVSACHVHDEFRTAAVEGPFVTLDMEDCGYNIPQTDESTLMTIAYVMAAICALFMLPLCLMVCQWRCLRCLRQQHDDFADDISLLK
T3 sequence (P11712 whole entry): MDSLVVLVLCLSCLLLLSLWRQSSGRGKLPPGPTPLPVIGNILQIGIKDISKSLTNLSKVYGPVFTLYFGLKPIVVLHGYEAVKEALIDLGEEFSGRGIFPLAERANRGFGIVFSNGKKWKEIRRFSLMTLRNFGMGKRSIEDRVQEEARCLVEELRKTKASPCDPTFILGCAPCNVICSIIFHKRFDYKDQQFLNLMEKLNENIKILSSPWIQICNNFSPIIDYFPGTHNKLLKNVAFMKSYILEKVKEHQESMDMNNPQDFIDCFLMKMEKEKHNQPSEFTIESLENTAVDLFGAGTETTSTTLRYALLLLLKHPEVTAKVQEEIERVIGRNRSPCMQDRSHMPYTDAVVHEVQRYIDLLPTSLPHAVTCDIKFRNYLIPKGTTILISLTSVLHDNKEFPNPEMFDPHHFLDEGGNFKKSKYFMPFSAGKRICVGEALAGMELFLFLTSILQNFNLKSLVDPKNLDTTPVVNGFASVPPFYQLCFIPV
T4 sequence (P10635 whole entry): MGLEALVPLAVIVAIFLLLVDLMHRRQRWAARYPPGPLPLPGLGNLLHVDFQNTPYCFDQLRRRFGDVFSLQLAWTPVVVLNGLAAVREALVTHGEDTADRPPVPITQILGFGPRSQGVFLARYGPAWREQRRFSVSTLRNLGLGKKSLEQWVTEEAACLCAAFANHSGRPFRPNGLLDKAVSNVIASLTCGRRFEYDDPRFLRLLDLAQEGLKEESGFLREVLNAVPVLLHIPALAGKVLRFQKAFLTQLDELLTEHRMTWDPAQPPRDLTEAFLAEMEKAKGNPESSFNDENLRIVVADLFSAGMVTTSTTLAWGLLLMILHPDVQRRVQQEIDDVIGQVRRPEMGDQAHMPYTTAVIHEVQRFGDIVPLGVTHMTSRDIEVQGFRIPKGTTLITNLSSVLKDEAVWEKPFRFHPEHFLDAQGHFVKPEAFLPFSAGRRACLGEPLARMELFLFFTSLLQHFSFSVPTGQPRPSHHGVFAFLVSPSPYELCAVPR
Chain of CYP3A4 (P08684 whole entry): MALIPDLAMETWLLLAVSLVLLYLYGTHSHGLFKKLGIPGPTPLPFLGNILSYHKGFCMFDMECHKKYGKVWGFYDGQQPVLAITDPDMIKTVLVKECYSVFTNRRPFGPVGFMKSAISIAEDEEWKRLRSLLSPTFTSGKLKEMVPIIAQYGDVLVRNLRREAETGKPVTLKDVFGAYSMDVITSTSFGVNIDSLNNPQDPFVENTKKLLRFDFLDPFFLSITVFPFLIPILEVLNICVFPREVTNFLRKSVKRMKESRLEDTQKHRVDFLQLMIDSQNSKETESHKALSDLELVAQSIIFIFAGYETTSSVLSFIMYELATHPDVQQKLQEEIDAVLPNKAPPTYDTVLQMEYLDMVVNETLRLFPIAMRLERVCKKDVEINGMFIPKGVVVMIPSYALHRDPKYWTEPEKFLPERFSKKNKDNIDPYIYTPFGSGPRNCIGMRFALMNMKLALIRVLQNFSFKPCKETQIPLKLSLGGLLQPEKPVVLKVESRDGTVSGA

Question: Which results are given for C[C@@]1(c2cc(-c3cccnc3F)ccc2F)Cc2nccn2C(N)=N1 [Compound I-2]?
Answer: IC50 (CYP2C19): > 20 µM; IC50 (Recombinant human BACE-1): ≤ 1 µM; IC50 [1]: ≤ 1 µM; IC50 (CYP2C9): > 20 µM; IC50 (CYP3A4): > 20 µM; IC50 (CYP2D6): > 20 µM
